Results reported in patent US8901337B2, “Metal complexes having dual histone deacetylase inhibitory and DNA-binding activity” (Royal College of Surgeons in Ireland, priority 2009, dated 2014).
Like-named read-outs stand apart in the source and are kept apart here.

How the values were obtained:
[1] = test system: A2780 P (ovarian cancer cells); assay: Cellular uptake of Pt (FAAS), A2780 P; assay type: cell-based, human; conditions: for Uptake of Pt complexes into A2780 P: 10 μM
Description: Cellular uptake of Pt compounds was measured in SKBR, SW480, A549, A2780P and CH1 cells. […] The cell monolayers at the end of the incubation with the Pt complexes were washed (twice) with ice-cold phosphate buffered saline (PBS), trypsinized and harvested into cold (4° C.) PBS. Cell suspensions were centrifuged and the pellets were stored in PBS at −80° C. until assayed. Afterward, the pellets were digested by high pressure microwave mineralization and Pt content was determined by flameless atomic absorption spectrophotometry (FAAS). The results of cellular Pt uptake were corrected for adsorption effects. All experiments were made in triplicate.^17

[2] = test system: cisplatin resistant ovarian cancer cell line A2780 cisR; assay: MTS in vitro cytotoxicity, A2780 cisR; assay type: cell-based, human; conditions: 72 hours; for IC50: MTS
Description: (§1) Cells were cultured in the appropriate media. […] In order to retain resistance 1 μM cisplatin was added to the media of the A2780 cisR cells every third passage. A2780 cisR cells are resistant to cisplatin through a combination of decreased uptake, enhanced DNA repair/tolerance, and elevated reduced glutathione levels
(§2) All cells were kept in a humidified atmosphere with 5% CO2 at 37° C.; cells from confluent monolayers were removed from flasks by trypsin/EDTA solution and their viability determined by the trypan blue exclusion test.
(§3) Cell growth was determined by the [3-(4,5-dimethylthiazol-2-yl)-5-(3-carboxymethoxyphenyl)-2-(4-sulfophenyl)-2H-tetrazolium, inner salt, (MTS test, Promega, Southampton, UK), a colorimetric assay based on the ability of the viable cells to reduce a soluble yellow tetrazolium salt to blue formazan. 10,000 ovarian cancer cells or 3,000 fibroblast cells for example were seeded per well onto 96-well plates in 100 μl of the appropriate culture medium. 24 hr after sowing the cells, the media was removed and the cells were treated by adding 100 μl of the compound media solutions at the appropriate concentrations. cis-[Pt(NH3)2(malSAHA−2H)], cisplatin and cis-[Pt(NH3)2(mal)] were prepared freshly in cell culture media. […] The maximum percentage of dmso present in any well was less than 0.1% (v/v). cis-[Pt(NH3)2(malBel—2H)], belinostat and malbelinostat were freshly prepared in dimethyl formamide (DMF) and diluted in culture media prior to the MTS assay. The maximum percentage of DMF present in any well was 0.5% (v/v). A range of concentrations between 1 μM and 100 μM was used.
(§4) After 72 hr of treatment, 20 μl of the MTS reagent was added to each well and the plates incubated for 2 hr at 37° C. […] The percentages of surviving cells relative to untreated controls were determined.

[3] = test system: SW480 (colon cancer cells); assay: Cellular uptake of Pt (FAAS), SW480; assay type: cell-based; conditions: 10 μM, 72 hours treatment
Description: (§5) Cellular uptake of Pt compounds was measured in SKBR, SW480, A549, A2780P and CH1 cells. The cells were seeded in 60 mm tissue culture dishes with 10 mL of their respective medium and after overnight incubation, the cells were treated with the Pt complexes for 72 h at 10 μM concentration. The cell monolayers at the end of the incubation with the Pt complexes were washed (twice) with ice-cold phosphate buffered saline (PBS), trypsinized and harvested into cold (4° C.) PBS. Cell suspensions were centrifuged and the pellets were stored in PBS at −80° C. until assayed. Afterward, the pellets were digested by high pressure microwave mineralization and Pt content was determined by flameless atomic absorption spectrophotometry (FAAS). The results of cellular Pt uptake were corrected for adsorption effects. All experiments were made in triplicate.^17

CH1 (cancer cells) = assay: Cellular uptake of Pt (FAAS), CH1; assay type: cell-based; conditions: 10 μM, 72 hours treatment
Description: as §5

[4] = test system: ovarian cancer cell line A2780 P; assay: MTS in vitro cytotoxicity, A2780 P; assay type: cell-based, human; conditions: 72 hours; for IC50: MTS
Description: as §1, §2, §3, §4

A549 (lung cancer cells) = assay: Cellular uptake of Pt (FAAS), A549; assay type: cell-based; conditions: 10 μM, 72 hours treatment
Description: as §5

cell line (CH1) = assay: MTS in vitro cytotoxicity, CH1; assay type: cell-based; conditions: 72 hours, Table 1, read-out: IC50 values against CH1
Description: as §2, §3, §4

[5] = test system: SKBR (breast cancer cells); assay: Cellular uptake of Pt (FAAS), SKBR; assay type: cell-based; conditions: 72 hours treatment; for Uptake of Pt complexes into SKBR: 10 μM
Description: as §5

[6] = test system: breast cancer cell line (SKBR); assay: MTS in vitro cytotoxicity, SKBR; assay type: cell-based; conditions: 72 hours, Table 1, read-out: IC50 values against SKBR
Description: as §2, §3, §4

[7] = test system: non-tumorigenic human dermal fibroblast cell line (NHDF); assay: MTS in vitro cytotoxicity, NHDF; assay type: cell-based; conditions: 72 hours; for IC50: MTS
Description: In addition Normal Neonatal Human Dermal Fibroblast, NHDF, cells were cultured in Fibroblast Basal Medium (FBM®, Clonetics, Walkersville, USA) supplemented with hFGF-B, insulin, 5% FBS and gentamicin/amphotericin-B (FGM®-2 SingleQuots, Clonetics, Walkersville, USA).
as §2, §3, §4

A2780 cisR cells = assay: Morphological analysis (methylene blue/eosin and DAPI staining), A2780 cisR; assay type: cell-based, human; conditions: IC50 and IC75, 72 hr
Description: Preparations of A2780 P and A2780-cisR cells were exposed to test agents for 72 hr and stained with methylene blue and eosin^19. Drug-treated cells were grown in petri dishes, washed once with PBS, once with PBS:methanol (1:1, v/v), and then fixed in 100% (v/v) methanol for 10 min. Following fixation, cell monolayers were rinsed with anhydrous methanol and stained with methylene blue and eosin for 2 min. Monolayers were then agitated for a further 2 min, destained by rinsing under a gentle stream of water and then finally rinsed with distilled water. Phase contrast microscopy was carried out using a Ceti-phase contrast microscope.
Drug-treated cells were also stained using a DNA-binding agent commonly used to stain nuclei and visualise nuclear morphology and DNA condensation, namely 4,6-diamidino-2-phenylindole (DAPI). Briefly, a monolayer of drug-treated cells was washed in PBS and fixed with 4% (w/v) paraformaldehyde for 30 min at room temperature. These cells were then permeabilized with 0.2% (v/v) Triton X in PBS and incubated with 1 μg/ml of DAPI for 30 min. Cells were again washed three times with PBS and viewed using a fluorescent microscope with 340/380 nm excitation filter at 250× magnification. Apoptotic cells were confirmed by identification of intensely stained, fragmented nuclei and condensed chromatin.

[8] = Table 1, read-out: IC50 values against A2780cisR
[9] = Table 1, read-out: IC50 values against A2780 P
[10] = Table 1, read-out: IC50 values against NHDF
[11] = Table 5, read-out: IC50 (μM) ± S.E.M. against A2780CisR
[12] = Table 5, read-out: IC50 (μM) ± S.E.M. against A2780P
[13] = Table 5, read-out: IC50 (μM) ± S.E.M. against NHDF

| Structure (SMILES) | Uptake of Pt complexes into A2780 P ([1]; 72 hours treatment) [pmol Pt/2 × 10^6 cell] | IC50 [2, 8] [µM] | Uptake of Pt complexes into SW480 [3] [pmol Pt/2 × 10^6 cell] | Uptake of Pt complexes into CH1 (CH1 (cancer cells)) [pmol Pt/2 × 10^6 cell] | IC50 [4, 9] [µM] | Uptake of Pt complexes into A549 (A549 (lung cancer cells)) [pmol Pt/2 × 10^6 cell] | IC50 (cell line (CH1)) [µM] | Uptake of Pt complexes into SKBR [5] [pmol Pt/2 × 10^6 cell] | uptake by cancer cells compared with cisplatin (in words) ([5]; SKBR, SW480, A549, A2780 P, CH1) | IC50 [6] [µM] | IC50 [7, 10] [µM] | selectivity for cancer cell lines over normal cell line NHDF ([7]; cytotoxicity) | Uptake of Pt complexes into A2780 P ([1]; 24 hours treatment) [pmol Pt/2 × 10^6 cell] | uptake by cancer cells (in words) ([1]; 24 hours treatment, A2780 P and A2780 cisR) | IC50 [2, 11] [µM] | activity against cisplatin resistant A2780 cisR (in words) ([2]; cytotoxicity) | cellular morphology and integrity of DNA (A2780 cisR cells) | IC50 [4, 12] [µM] | selectivity for A2780 P over normal cell line NHDF ([4]; cytotoxicity) | IC50 [7, 13] [µM] |
| --- | --- | --- | --- | --- | --- | --- | --- | --- | --- | --- | --- | --- | --- | --- | --- | --- | --- | --- | --- | --- |
| [NH2][Pt]1([NH2])[O]C(=O)C(Cc2ccc(NC(=O)CCCCCCC(=O)NO)cc2)C(=O)[O]1 [cis-[Pt(NH3)2(malSAHA−2H)], cis-[Pt(NH3)2(malSAHA−2H)].3H2O] | 5535 ± 865 | 70 ± 3.5 | 5422 ± 222 | 1595 ± 158 | 9 ± 3.1 | 6419 ± 619 | 3.8 ± 0.5 | 6568 ± 312 | taken up by cancer cells after 72 hours treatment and to a greater extent than cisplatin | 9.9 ± 1.8 | 83 ± 7.6 | displays selectivity for cancer cell lines over representative normal cell line NHDF |  |  |  |  |  |  |  |  |
| [NH2][Pt]1([NH2])[O]C(=O)C(Cc2ccc(NS(=O)(=O)c3ccc(/C=C/C(=O)NO)cc3)cc2)C(=O)[O]1 [cis-[Pt(NH3)2(malBel−2H)], cis-[Pt(NH3)2(malBel−2H)].1.5H2O] |  |  |  |  |  |  |  |  |  |  |  |  | 154 ± 10 | is taken up by cancer cells after 24 hours treatment | 11.7 ± 0.9 | retains activity against A2780 cisR cell line | considerable thinning of the monolayer, attenuation of cells and the nuclei to be intensively stained and fragmented | 7.6 ± 0.3 | displays selectivity for A2780 P cancer cell line over representative normal cell line NHDF | 33.9 ± 2 |
| N.N.[Cl][Pt][Cl] [cisplatin, cis-[Pt^II(NH3)2Cl2], reference compound] | 612.25 ± 107.75 | 28.5 ± 1.5 | 391.95 ± 51.95 | 145.4 ± 21.8 | 2.9 ± 0.1 | 614.85 ± 94.85 | 1 ± 0.5 | 876.25 ± 70.55 |  | 7.5 ± 1.2 | 10 ± 1.8 |  | 290 ± 35 |  | 9.8 ± 1 |  | considerable thinning of the monolayer, attenuation of cells and the nuclei to be intensively stained and fragmented | 1.3 ± 0.1 |  | 2.4 ± 0.6 |
